Earlier results, collected in patent publication US9371350B2, “Trehalose derivatives and pharmaceutical compositions for treating neurodegenerative diseases” (POSTECH ACADEMY-INDUSTRY FOUNDATION, priority 2008, dated 2016).

Tests used:
[1] = background, literature report
[2] = tested on: polyglutamine-induced aggregate formation; details: in vivo mouse model, literature report

| Compound | passage through the BBB to the brain [1] | inhibition of polyglutamine-induced aggregate formation [2] |
| --- | --- | --- |
| OC[C@H]1O[C@H](O[C@H]2O[C@H](CO)[C@@H](O)[C@H](O)[C@H]2O)[C@H](O)[C@@H](O)[C@@H]1O [trehalose] | cannot pass through the BBB | efficiently inhibit |
| O[C@H]1[C@H](O)[C@@H](O)[C@H](O)[C@@H](O)[C@H]1O [inositol] | difficulty in passing through the blood-brain barrier |  |
